In brackets after ≈: the same amount, converted by molar mass. Like-named read-outs stand apart in the source and are kept apart here.
Experiments:
[1] = test system: Escherichia coli EC107, ATCC 25922; experiment: MIC assay, EC107; type: cell-based; details: ATCC25922, Table 8, read-out: MIC E. coli ATCC 25922
[2] = test system: Enterococcus faecalis EF103, ATCC 29212; experiment: MIC assay, EF103; type: cell-based; details: Enterococcus faecalis, ATCC29212; Table 8; read-out: MIC E. faecalis ATCC 29212
[3] = test system: Staphylococcus aureus SA161, HA-MRSA, tetracycline-resistant, tet(M); experiment: MIC assay, SA161; type: cell-based; details: Table 8, read-out: MIC S. aureus MRSA, tetM
[4] = test system: E. coli DH10B(pBAD-tetK), expressing tet(K); experiment: MIC against recombinant E. coli expressing tet(K); type: cell-based; details: for MIC: Escherichia coli
From the text: (§1) Constructs were transformed into E. coli DH10B for expression. Recombinant strains were pre-induced under optimized conditions with L-arabinose prior to use as inocula in CLSI standardized MIC assays.

[5] = test system: Enterococcus faecalis EF159, tetracycline-resistant, tet(M); experiment: MIC assay, EF159; type: cell-based; details: Table 8, read-out: MIC E. faecalis tetM
[6] = test system: Streptococcus pneumoniae SP106, ATCC 49619; experiment: MIC assay, SP106; type: cell-based; details: ATCC49619, Table 8, read-out: MIC S. pneumoniae ATCC 49619
[7] = test system: E. coli DH10B(pBAD-tetM), expressing tet(M); experiment: MIC against recombinant E. coli expressing tet(M); type: cell-based; details: for MIC: Escherichia coli
From the text: as §1

[8] = test system: Staphylococcus aureus SA101, ATCC 29213, MSSA; experiment: MIC assay, SA101; type: cell-based; details: Table 8, read-out: MIC S. aureus ATCC 29213
[9] = test system: tet(M) strains of S. pneumoniae; experiment: MIC, CLSI methodology, recent clinical isolates (Example 21); type: cell-based; details: Streptococcus pneumoniae, read-out: MIC against tet(M) strains of S. pneumoniae
Description: (§2) The assays were run as follows.
(§3) The antibacterial activities of Compounds MIC values were determined according to CLSI methodology. Recent clinical isolates were obtained from Eurofins-Medinet. Antibiotics were obtained from standard commercial sources.

[10] = test system: tet(M) strains of S. aureus; experiment: as above; type: cell-based; details: Staphylococcus aureus, read-out: MIC against tet(M) strains of S. aureus
Description: as §2, §3

[11] = test system: tet(K) strains of S. aureus; experiment: as above; type: cell-based; details: Staphylococcus aureus, read-out: MIC against tet(K) strains of S. aureus
Description: as §2, §3

[12] = test system: tet(M) and tet(S) strains of E. faecalis; experiment: as above; type: cell-based; details: Enterococcus faecalis, read-out: MIC against tet(M) and tet(S) strains of E. faecalis
Description: as §2, §3

[13] = test system: S. pneumoniae clinical isolates; experiment: MIC50, MIC90 and MIC range, panel of clinical isolates (Example 20); type: cell-based; details: 19 isolates, in µg/mL
Description: as §2
(§4) Both values, as well as the MIC range (the lowest and highest MIC value observed for a collection of organisms), were determined for the isolates listed in Table 3.

[14] = test system: E. faecalis clinical isolates; experiment: as above; type: cell-based; details: 24 isolates, in µg/mL
Description: as §2, §4

[15] = test system: S. aureus clinical isolates; experiment: as above; type: cell-based; details: MRSA, 30 isolates; in µg/mL
Description: as §2, §4

[16] = test system: Staphylococcus aureus SA158, tetracycline-resistant tet(K); experiment: MIC assay, SA158; type: cell-based; details: Table 8, read-out: MIC S. aureus tetK
[17] = test system: Escherichia coli EC155, tetracycline-resistant, tet(A); experiment: MIC assay, EC155; type: cell-based; details: Table 8, read-out: MIC E. coli tetA
[18] = test system: Streptococcus pneumoniae SP160, tetracycline-resistant, tet(M); experiment: MIC assay, SP160; type: cell-based; details: Table 8, read-out: MIC S. pneumoniae tetM
[19] = test system: E. coli S30 extract system, coupled in vitro transcription/translation, firefly luciferase readout; experiment: In vitro transcription/translation (TnT) assay; type: biochemical

CN(C)CC(C)(C)CNc1nc(F)c2c(c1O)C(=O)C1=C(O)[C@]3(O)C(=O)C(C(N)=O)=C(O)[C@@H](N(C)C)[C@@H]3C[C@@H]1C2 [Compound 133]
MIC [1]: 1 µg/mL (≈ 1.78 µM) | MIC [2]: 0.5 µg/mL (≈ 0.89 µM) | MIC [3]: 2 µg/mL (≈ 3.56 µM) | MIC ([4]; read-out: MIC, TetK Induced): 1 µg/mL | MIC ([4]; read-out: MIC, Uninduced): 2 µg/mL | MIC ratio, TetK induced to uninduced ([4]; ratio of TetK induced to uninduced MIC): 0.5 | Effect of expression of (tet)K on activity ([4]; result in words): unaffected | MIC [5]: 2 µg/mL (≈ 3.56 µM) | MIC [6]: 0.5 µg/mL (≈ 0.89 µM) | MIC ([7]; read-out: MIC, TetM induced): 2 µg/mL | MIC ([7]; read-out: MIC, Uninduced): 0.5 µg/mL | Ratio (TetM induced / Uninduced) ([7]; ratio of MICs): 4 | Effect of expression of (tet)M on activity ([7]; result in words): minimally affected | MIC [8]: 1 µg/mL (≈ 1.78 µM) | MIC [9]: ≤ 0.25 µg/mL | MIC [10]: ≤ 8 µg/mL | MIC [11]: ≤ 1 µg/mL | MIC [12]: ≤ 4 µg/mL | MIC Range [13]: <=0.016-0.25 | MIC Range [14]: 0.25-4 | MIC Range [15]: 0.5-8 | MIC [16]: 0.5 µg/mL (≈ 0.89 µM) | MIC [17]: 8 µg/mL (≈ 14.2 µM) | MIC [18]: 1 µg/mL (≈ 1.78 µM) | TnT IC50 [19]: 0.56 µg/mL | IC50, in vitro transcription/translation system ([19]; E. coli S30 extract, luciferase readout): 0.6 µg/mL (≈ 1.07 µM)
